Earlier results as cited in patent publication US20070015279A1, “Methods of Selecting Pancreatic Endocrine Cells Using Protein Synthesis Inhibitors” (AmCyte Inc., priority 2005, published 2007).
Converted amounts (≈) assume the structure as drawn.

What was measured:
[1] = tested on: RbbA; conditions: control antibiotic; cited from earlier work
[2] = tested on: 70S ribosome-associated ATPase activity; conditions: cited from earlier work
[3] = tested on: cells; conditions: cited from earlier work
[4] = tested on: 30S ribosomal subunit; conditions: 3 μg/mL; cited from earlier work

[H]/N=C(/N)N[C@H]1[C@H](O)[C@@H](O)[C@H](O[C@@H]2O[C@@H](C)[C@](O)(C=O)[C@H]2O[C@@H]2O[C@@H](CO)[C@H](O)[C@@H](O)[C@@H]2NC)[C@@H](N/C(N)=N\[H])[C@@H]1O [Streptomycin, streptomycin]
RbbA released, relative to the amount hygromycin B releases [1]: about 25%
inhibition of the ATPase activity of ribosomes compared to that of hygromycin B [2]: about 20%

NC[C@@H]1O[C@H](O[C@H]2[C@@H](O)[C@H](O[C@@H]3[C@@H](O)[C@H](N)C[C@H](N)[C@H]3O[C@H]3O[C@H](CO)[C@@H](O)[C@H](O)[C@H]3N)O[C@@H]2CO)[C@H](N)[C@@H](O)[C@@H]1O [paromomycin]
IC50, viable cell number [3]: 2 µg/mL (≈ 3.25 µM)
reduction of the rate of 30S formation compared with control cells [4]: about 80%
